# Assay results from the supplement of paper PMC10307832.
# What was measured:
# Assay in all cases: relative viability (nuclei count vs DMSO), 5 days (fraction); higher = more cells survive
# SK-MES-1 = tested on: SK-MES-1
# How it was run: (§1)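 Lung cancer cell lines, seeded in 1536-well plates, were treated the following day by pin tool with a single drug or with five library-drug doses (not always all listed) in √10 steps on top of a fixed anchor-drug dose. Cells were fixed and nuclei stained in one step after 5 days, and nuclei were counted. Relative viability is the nuclei count for treated wells divided by that for vehicle wells, reported as medians of duplicate plates.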
# RERF-LC-KJ = tested on: RERF-LC-KJ
# How it was run: as §1
# NCI-H1792 = tested on: NCI-H1792
# How it was run: as §1
# EPLC-272H = tested on: EPLC-272H
# How it was run: as §1
# NCI-H596 = tested on: NCI-H596
# How it was run: as §1
# HCC-15 = tested on: HCC-15
# How it was run: as §1
# HCC-78 = tested on: HCC-78
# How it was run: as §1
# NCI-H647 = tested on: NCI-H647
# How it was run: as §1
# COR-L 105 = tested on: COR-L 105
# How it was run: as §1
# NCI-H661 = tested on: NCI-H661
# How it was run: as §1
# NCI-H358 = tested on: NCI-H358
# How it was run: as §1
# LCLC-97TM1 = tested on: LCLC-97TM1
# How it was run: as §1
# SW 1573 = tested on: SW 1573
# How it was run: as §1
# NCI-H522 = tested on: NCI-H522
# How it was run: as §1
# NCI-H1395 = tested on: NCI-H1395
# How it was run: as §1
# NCI-H2009 = tested on: NCI-H2009
# How it was run: as §1
# NCI-H650 = tested on: NCI-H650
# How it was run: as §1
# HCC-366 = tested on: HCC-366
# How it was run: as §1
# ABC-1 = tested on: ABC-1
# How it was run: as §1
# NCI-H1993 = tested on: NCI-H1993
# How it was run: as §1
# HCC-827 = tested on: HCC-827
# How it was run: as §1
structure (smiles),measurement,setting,value
C=C1C(=O)O[C@@H](CCCCCCCC)[C@@H]1C(=O)O [C-75] + Cc1nc(Nc2ncc(C(=O)Nc3c(C)cccc3Cl)s2)cc(N2CCN(CCO)CC2)n1 [Dasatinib] (partner 0.075 µM),relative viability,SK-MES-1; first compound 0.08 µM,0.357
same,relative viability,SK-MES-1; first compound 0.253 µM,0.286
same,relative viability,SK-MES-1; first compound 0.8 µM,0.319
same,relative viability,SK-MES-1; first compound 2.53 µM,0.332
same,relative viability,SK-MES-1; first compound 8 µM,0.336
same,relative viability,RERF-LC-KJ; first compound 0.08 µM,0.917
same,relative viability,RERF-LC-KJ; first compound 0.253 µM,0.901
same,relative viability,RERF-LC-KJ; first compound 0.8 µM,0.819
same,relative viability,RERF-LC-KJ; first compound 2.53 µM,0.682
same,relative viability,RERF-LC-KJ; first compound 8 µM,0.798
same,relative viability,NCI-H1792; first compound 0.08 µM,0.788
same,relative viability,NCI-H1792; first compound 0.253 µM,0.623
same,relative viability,NCI-H1792; first compound 0.8 µM,0.724
same,relative viability,NCI-H1792; first compound 2.53 µM,0.503
same,relative viability,NCI-H1792; first compound 8 µM,0.692
same,relative viability,EPLC-272H; first compound 0.08 µM,0.412
same,relative viability,EPLC-272H; first compound 0.253 µM,0.292
same,relative viability,EPLC-272H; first compound 0.8 µM,0.351
same,relative viability,EPLC-272H; first compound 2.53 µM,0.33
same,relative viability,EPLC-272H; first compound 8 µM,0.381
same,relative viability,NCI-H596; first compound 0.08 µM,0.764
same,relative viability,NCI-H596; first compound 0.253 µM,0.669
same,relative viability,NCI-H596; first compound 0.8 µM,0.6
same,relative viability,NCI-H596; first compound 2.53 µM,0.446
same,relative viability,NCI-H596; first compound 8 µM,0.616
same,relative viability,HCC-15; first compound 0.08 µM,0.644
same,relative viability,HCC-15; first compound 0.253 µM,0.571
same,relative viability,HCC-15; first compound 0.8 µM,0.602
same,relative viability,HCC-15; first compound 2.53 µM,0.498
same,relative viability,HCC-15; first compound 8 µM,0.528
same,relative viability,HCC-78; first compound 0.08 µM,0.418
same,relative viability,HCC-78; first compound 0.253 µM,0.469
same,relative viability,HCC-78; first compound 0.8 µM,0.341
same,relative viability,HCC-78; first compound 2.53 µM,0.274
same,relative viability,HCC-78; first compound 8 µM,0.347
same,relative viability,NCI-H647; first compound 0.08 µM,0.227
same,relative viability,NCI-H647; first compound 0.253 µM,0.114
same,relative viability,NCI-H647; first compound 0.8 µM,0.172
same,relative viability,NCI-H647; first compound 2.53 µM,0.143
same,relative viability,NCI-H647; first compound 8 µM,0.219
same,relative viability,COR-L 105; first compound 0.08 µM,0.401
same,relative viability,COR-L 105; first compound 0.253 µM,0.243
same,relative viability,COR-L 105; first compound 0.8 µM,0.358
same,relative viability,COR-L 105; first compound 2.53 µM,0.338
same,relative viability,COR-L 105; first compound 8 µM,0.303
same,relative viability,NCI-H661; first compound 0.08 µM,0.839
same,relative viability,NCI-H661; first compound 0.253 µM,0.795
same,relative viability,NCI-H661; first compound 0.8 µM,0.857
same,relative viability,NCI-H661; first compound 2.53 µM,0.856
same,relative viability,NCI-H661; first compound 8 µM,0.746
same,relative viability,NCI-H358; first compound 0.08 µM,0.181
same,relative viability,NCI-H358; first compound 0.253 µM,0.13
same,relative viability,NCI-H358; first compound 0.8 µM,0.157
same,relative viability,NCI-H358; first compound 2.53 µM,0.151
same,relative viability,NCI-H358; first compound 8 µM,0.143
same,relative viability,LCLC-97TM1; first compound 0.08 µM,0.799
same,relative viability,LCLC-97TM1; first compound 0.253 µM,0.807
same,relative viability,LCLC-97TM1; first compound 0.8 µM,0.883
same,relative viability,LCLC-97TM1; first compound 2.53 µM,0.704
same,relative viability,LCLC-97TM1; first compound 8 µM,0.874
same,relative viability,SW 1573; first compound 0.08 µM,0.632
same,relative viability,SW 1573; first compound 0.253 µM,0.476
same,relative viability,SW 1573; first compound 0.8 µM,0.291
same,relative viability,SW 1573; first compound 2.53 µM,0.46
same,relative viability,SW 1573; first compound 8 µM,0.295
same,relative viability,NCI-H522; first compound 0.08 µM,0.867
same,relative viability,NCI-H522; first compound 0.253 µM,0.849
same,relative viability,NCI-H522; first compound 0.8 µM,0.784
same,relative viability,NCI-H522; first compound 8 µM,0.906
same,relative viability,NCI-H1395; first compound 0.08 µM,0.396
same,relative viability,NCI-H1395; first compound 0.253 µM,0.388
same,relative viability,NCI-H1395; first compound 0.8 µM,0.42
same,relative viability,NCI-H1395; first compound 2.53 µM,0.407
same,relative viability,NCI-H1395; first compound 8 µM,0.477
same,relative viability,NCI-H2009; first compound 0.08 µM,0.303
same,relative viability,NCI-H2009; first compound 0.253 µM,0.219
same,relative viability,NCI-H2009; first compound 0.8 µM,0.281
same,relative viability,NCI-H2009; first compound 2.53 µM,0.228
same,relative viability,NCI-H2009; first compound 8 µM,0.203
same,relative viability,NCI-H650; first compound 0.08 µM,0.469
same,relative viability,NCI-H650; first compound 0.253 µM,0.328
same,relative viability,NCI-H650; first compound 0.8 µM,0.383
same,relative viability,NCI-H650; first compound 2.53 µM,0.358
same,relative viability,NCI-H650; first compound 8 µM,0.398
same,relative viability,HCC-366; first compound 0.08 µM,0.744
same,relative viability,HCC-366; first compound 0.253 µM,0.623
same,relative viability,HCC-366; first compound 0.8 µM,0.605
same,relative viability,HCC-366; first compound 8 µM,0.443
same,relative viability,ABC-1; first compound 0.08 µM,0.729
same,relative viability,ABC-1; first compound 0.253 µM,0.613
same,relative viability,ABC-1; first compound 0.8 µM,0.566
same,relative viability,ABC-1; first compound 2.53 µM,0.585
same,relative viability,ABC-1; first compound 8 µM,0.388
same,relative viability,NCI-H1993; first compound 0.08 µM,0.568
same,relative viability,NCI-H1993; first compound 0.253 µM,0.861
same,relative viability,NCI-H1993; first compound 0.8 µM,0.475
same,relative viability,NCI-H1993; first compound 2.53 µM,0.553
same,relative viability,NCI-H1993; first compound 8 µM,0.602
same,relative viability,HCC-827; first compound 0.08 µM,0.28
same,relative viability,HCC-827; first compound 0.253 µM,0.356
same,relative viability,HCC-827; first compound 0.8 µM,0.301
same,relative viability,HCC-827; first compound 2.53 µM,0.221
same,relative viability,HCC-827; first compound 8 µM,0.347
